Laboratory results from PubChem BioAssay AID2060611 (Molecular Pharmacology Branch, DTP, NCI, 2025).

Test system: 628569-122-R-J1-PDC complex spheroid viability
Assay: Anticancer human tumor 628569-122-R-J1-PDC patient-derived head and neck squamous carcinoma cell line growth inhibition [CLK]
Details: for IC50: curve of first compound; for viability, T/C: stronger effect = lower value
Summary of the method: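 Patient-derived tumor cells grown as complex spheroids with HUVEC endothelial cells and mesenchymal stem cells, treated with drug combinations. Concentrations descend in half-log steps from near clinical Cmax, or from 10 microM if Cmax unknown.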

[1] = second compound 0.0316 µM, first compound 0.0316 µM
[2] = second compound 0.0316 µM, first compound 0.1 µM
[3] = second compound 0.0316 µM, first compound 0.316 µM
[4] = second compound 0.0316 µM, first compound 1 µM
[5] = second compound 0.1 µM, first compound 0.0316 µM
[6] = second compound 0.1 µM, first compound 0.1 µM
[7] = second compound 0.1 µM, first compound 0.316 µM
[8] = second compound 0.1 µM, first compound 1 µM
[9] = second compound 0.316 µM, first compound 0.0316 µM
[10] = second compound 0.316 µM, first compound 0.1 µM
[11] = second compound 0.316 µM, first compound 0.316 µM
[12] = second compound 0.316 µM, first compound 1 µM
[13] = second compound 1 µM, first compound 0.0316 µM
[14] = second compound 1 µM, first compound 0.1 µM
[15] = second compound 1 µM, first compound 0.316 µM
[16] = second compound 1 µM, first compound 1 µM
[17] = second compound 3.16 µM, first compound 0.0316 µM
[18] = second compound 3.16 µM, first compound 0.1 µM
[19] = second compound 3.16 µM, first compound 0.316 µM
[20] = second compound 3.16 µM, first compound 1 µM
[21] = second compound 10 µM, first compound 0.0316 µM
[22] = second compound 10 µM, first compound 0.1 µM
[23] = second compound 10 µM, first compound 0.316 µM
[24] = second compound 10 µM, first compound 1 µM
[25] = second compound 0.0316 µM, first compound 0.00316 µM
[26] = second compound 0.0316 µM, first compound 0.01 µM
[27] = second compound 0.1 µM, first compound 0.00316 µM
[28] = second compound 0.1 µM, first compound 0.01 µM
[29] = second compound 0.316 µM, first compound 0.00316 µM
[30] = second compound 0.316 µM, first compound 0.01 µM
[31] = second compound 1 µM, first compound 0.00316 µM
[32] = second compound 1 µM, first compound 0.01 µM
[33] = second compound 3.16 µM, first compound 0.00316 µM
[34] = second compound 3.16 µM, first compound 0.01 µM
[35] = second compound 10 µM, first compound 0.00316 µM
[36] = second compound 10 µM, first compound 0.01 µM
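Note: spheroids exposed to agents for seven days before readout.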
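Throughout, for viability, T/C: 100% = DMSO vehicle control viability.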

CC(Nc1ccc2c(c1)OCCn1cc(N3C(=O)OCC3C(F)F)nc1-2)C(N)=O (stereo unspecified) + CNC(=O)c1ccc(Nc2nc(OC3CCCC3)c3c(-c4ccc5nc(C)oc5c4)c[nH]c3n2)c(OC)c1
IC50 (second compound 0.0316 µM): 269 nM
IC50 (second compound 0.1 µM): 31.7 nM
IC50 (second compound 0.316 µM): < 31.6 nM
IC50 (second compound 1 µM): < 31.6 nM
IC50 (second compound 3.16 µM): < 31.6 nM
IC50 (second compound 10 µM): < 31.6 nM
viability, T/C [1]: 67.3%
viability, T/C [2]: 61.1%
viability, T/C [3]: 48.2%
viability, T/C [4]: 34.2%
viability, T/C (second compound 0.0316 µM, first compound 3.16 µM): 41.8%
viability, T/C (second compound 0.0316 µM, first compound 10 µM): 26.5%
viability, T/C [5]: 55.7%
viability, T/C [6]: 38.5%
viability, T/C [7]: 31.9%
viability, T/C [8]: 40.5%
viability, T/C (second compound 0.1 µM, first compound 3.16 µM): 38.2%
viability, T/C (second compound 0.1 µM, first compound 10 µM): 17.7%
viability, T/C [9]: 41%
viability, T/C [10]: 44.8%
viability, T/C [11]: 36.5%
viability, T/C [12]: 43.1%
viability, T/C (second compound 0.316 µM, first compound 3.16 µM): 32.3%
viability, T/C (second compound 0.316 µM, first compound 10 µM): 16.9%
viability, T/C [13]: 39.5%
viability, T/C [14]: 32.6%
viability, T/C [15]: 29.6%
viability, T/C [16]: 27.5%
viability, T/C (second compound 1 µM, first compound 3.16 µM): 23.4%
viability, T/C (second compound 1 µM, first compound 10 µM): 13.5%
viability, T/C [17]: 37.1%
viability, T/C [18]: 31.7%
viability, T/C [19]: 26.8%
viability, T/C [20]: 22.2%
viability, T/C (second compound 3.16 µM, first compound 3.16 µM): 20.8%
viability, T/C (second compound 3.16 µM, first compound 10 µM): 16.3%
viability, T/C [21]: 34.7%
viability, T/C [22]: 28.2%
viability, T/C [23]: 26.5%
viability, T/C [24]: 25.9%
viability, T/C (second compound 10 µM, first compound 3.16 µM): 23.2%
viability, T/C (second compound 10 µM, first compound 10 µM): 13.2%

CCN1CCN(Cc2ccc(Nc3ncc(F)c(-c4cc(F)c5nc(C)n(C(C)C)c5c4)n3)nc2)CC1 + CNC(=O)c1ccc(Nc2nc(OC3CCCC3)c3c(-c4ccc5nc(C)oc5c4)c[nH]c3n2)c(OC)c1
IC50 (second compound 0.0316 µM): > 1000 nM
IC50 (second compound 0.1 µM): > 1000 nM
IC50 (second compound 0.316 µM): > 1000 nM
IC50 (second compound 1 µM): < 3.16 nM
IC50 (second compound 3.16 µM): < 3.16 nM
IC50 (second compound 10 µM): < 3.16 nM
viability, T/C [25]: 81.5%
viability, T/C [26]: 94.4%
viability, T/C [1]: 76.3%
viability, T/C [2]: 67.7%
viability, T/C [3]: 98.7%
viability, T/C [4]: 155%
viability, T/C [27]: 58.5%
viability, T/C [28]: 64%
viability, T/C [5]: 56.4%
viability, T/C [6]: 61.7%
viability, T/C [7]: 108%
viability, T/C [8]: 137%
viability, T/C [29]: 57.6%
viability, T/C [30]: 55.6%
viability, T/C [9]: 51.7%
viability, T/C [10]: 61%
viability, T/C [11]: 95.3%
viability, T/C [12]: 135%
viability, T/C [31]: 45.5%
viability, T/C [32]: 49.2%
viability, T/C [13]: 50.7%
viability, T/C [14]: 63%
viability, T/C [15]: 92.6%
viability, T/C [16]: 122%
viability, T/C [33]: 48.2%
viability, T/C [34]: 55.7%
viability, T/C [17]: 57.1%
viability, T/C [18]: 49.6%
viability, T/C [19]: 82.9%
viability, T/C [20]: 97.9%
viability, T/C [35]: 46.1%
viability, T/C [36]: 38.8%
viability, T/C [21]: 46.1%
viability, T/C [22]: 49.3%
viability, T/C [23]: 76.4%
viability, T/C [24]: 99.2%

COc1c(OCCCN2CCOCC2)ccc2c3n(c(=NC(=O)c4cnc(N)nc4)nc12)CCN3 + CNC(=O)c1ccc(Nc2nc(OC3CCCC3)c3c(-c4ccc5nc(C)oc5c4)c[nH]c3n2)c(OC)c1
IC50 (second compound 0.0316 µM): 23.4 nM
IC50 (second compound 0.1 µM): < 3.16 nM
IC50 (second compound 0.316 µM): < 3.16 nM
IC50 (second compound 1 µM): < 3.16 nM
IC50 (second compound 3.16 µM): < 3.16 nM
IC50 (second compound 10 µM): < 3.16 nM
viability, T/C [25]: 83.1%
viability, T/C [26]: 66.5%
viability, T/C [1]: 43.5%
viability, T/C [2]: 25.6%
viability, T/C [3]: 20.6%
viability, T/C [4]: 5.3%
viability, T/C [27]: 46.8%
viability, T/C [28]: 46.2%
viability, T/C [5]: 28.7%
viability, T/C [6]: 22%
viability, T/C [7]: 19.6%
viability, T/C [8]: 8.28%
viability, T/C [29]: 48.3%
viability, T/C [30]: 47.7%
viability, T/C [9]: 29.8%
viability, T/C [10]: 17.1%
viability, T/C [11]: 16.2%
viability, T/C [12]: 6.59%
viability, T/C [31]: 37.8%
viability, T/C [32]: 34.3%
viability, T/C [13]: 27.3%
viability, T/C [14]: 23.5%
viability, T/C [15]: 13.9%
viability, T/C [16]: 3.21%
viability, T/C [33]: 41.6%
viability, T/C [34]: 34.7%
viability, T/C [17]: 27.4%
viability, T/C [18]: 15.4%
viability, T/C [19]: 5.46%
viability, T/C [20]: 3.02%
viability, T/C [35]: 37.5%
viability, T/C [36]: 28.5%
viability, T/C [21]: 30.3%
viability, T/C [22]: 12.8%
viability, T/C [23]: 21.6%
viability, T/C [24]: 7.07%
